The values that follow come from patent US10059699B2, “Tetrahydroquinoline derivatives as bromodomain inhibitors” (GlaxoSmithKline Intellectual Property (No.2) Limited, priority 2014, dated 2018).

In assay [1] the test system is biphenotypic B myelomonocytic leukaemia cells (MV-4-11). The assay can be described thus: Cancer cell line proliferation assay, MV-4-11. The format is cell-based. As to conditions: Homo sapiens, MV4-11, MV-4-11 cells, 72 hours, CellTiter Glo, n = 3. How it is done:
The impact of the compound of Examples 7 and 14 on cancer cell proliferation was determined using patient derived NUT midline carcinoma cells (11060), multiple myeloma cells (OPM-2, DSMZ) and biphenotypic B myelomonocytic leukaemia cells (MV-4-11, ATCC) in a 72 hour proliferation assay. 11060 and OPM-2 cells were maintained in RPMI 1640 medium (Invitrogen) supplemented with 10% HI-FBS (Heat-Inactivated Fetal Bovine Serum, Hyclone) and 2 mM L-glutamine (Invitrogen) at 37° C. and an atmosphere of 5% CO2. MV-4-11 cells were maintained in IMDM media supplemented with 10% HI-FCS, 2 mM L-glutamine, 1× Non-essential amino acids (Invitrogen) and 1× sodium pyruvate (1 mM) (Invitrogen). Cells were diluted to 1.11×10^5 cells/mL and 90 μL/well plated into black sided, clear bottomed 96 well tissue culture plates (Corning), using growth media supplemented with penicillin/streptomycin (Invitrogen). Cells were incubated overnight at 37° C. and in one plate, ATP levels were measured using the CellTiter Glo assay (Promega) according to the manufacturer's instructions, to give a baseline reading (t=0). 3-fold serial dilutions of compounds ranging from 6 mM to 0.3 μM were prepared in 100% DMSO. The DMSO dilution series was diluted 20-fold in growth media before 10 μl of the resulting dilutions were added to the appropriate wells of the remaining cell plates. The final compound concentrations in the wells ranged from 30 μM to 1.5 nM in 0.5% DMSO. Cells were incubated with compounds for 72 hours before assaying for ATP content using CellTiter Glo (t=72). CellTiter Glo data from each t=72 time point was normalised to the relevant t=0 time point data, and expressed as % t=0.
(In general: Cellular ATP, detected with luciferase, serves as a proxy for viable cell number.)

Another assay deals with IL-6. The assay can be described thus: LPS induced secretion of IL-6 from whole blood. The class given is cell-based. As to conditions: human whole blood, LPS 200 ng/mL, n=6; read-out: pIC50, LPS induced IL-6 secretion (converted). An excerpt:
Activation in whole blood of predominantly monocytic cells by agonists of toll-like receptors such as bacterial lipopolysaccharide (LPS) results in production of key inflammatory mediators, including IL-6. Such pathways are widely considered to be central to the pathophysiology of a range of auto-immune and inflammatory disorders.
Human Whole Blood from 2 donors (n=2) is collected using Sodium heparin as anti-coagulent (Wockhardt cat# FP1712) (10 units of heparin/mL of blood). Compounds were prepared as [10 mM] DMSO stocks and then diluted such that the top starting concentration was [1.4 mM] followed by 8×3-fold dilutions in DMSO. Final assay concentrations start at [10 μM] for all compounds. 1 μL diluted compound was added per well in a 96-well U bottom plate. 1 μL DMSO only was added to column 10 (+ve control) and 1-((2S,4R)-2-methyl-4-(phenylamino)-6-(4-(piperidin-1-ylmethyl)phenyl)-3,4-dihydroquinolin-1(2H)-yl)ethanone (for a preparation see Compound 28, J. Med. Chem. 2014, 57, 8111-8131, 1 μL, 1.4 mM) added to column 11 (−ve control). […] 150 μL of 2×MSD Read Buffer T (stock 4×MSD Read Buffer T was diluted 50:50 with de-ionised water) was then added to each well and the plates read on the MSD Sector Imager 6000. Concentration response curves for each compound were generated from the data using internal XC50 analysis and an IC50 value was calculated.

The structures appear in SMILES notation. Like-named read-outs stand apart in the source and are kept apart here.

Turning to `CC(=O)N1c2ccc(C(N)=O)cc2[C@H](Nc2ncc(Cl)cn2)C[C@@H]1C` [Example 14, (2S,4R)-1-acetyl-4-((5-chloropyrimidin-2-yl)amino)-2-methyl-1,2,3,4-tetrahydroquinoline-6-carboxamide], the IC50 in assay [1] (full curve fit, read-out: Cellular Proliferation: pIC50 (converted)) was 316 nM; in assay [1] (read-out: Cellular Proliferation: gpIC50 (converted)), 251 nM; with IL-6, 200 nM.
